Results from paper PMC11270968, “Antiplasmodial potential of isolated xanthones from Mesua ferrea Linn. roots: an in vitro and in silico molecular docking and pharmacokinetics study” (BMC Complementary Medicine and Therapies, 2024).
Converted amounts (≈) assume the structure as drawn. “Also recorded” adds a separate entry of the source. Where two headings read alike, the source gives them in different places.

How the values were obtained:
P. falciparum D6 = conditions: cited from earlier work
[1] = test system: P. falciparum FcB1/Colombia; set-up: method as in PMID 15474559; conditions: chloroquine-resistant P. falciparum FcB1/Colombia; cited from earlier work
heme polymerization = test system: heme polymerization; set-up: method as in PMID 9199506; conditions: cited from earlier work
P. falciparum K1 strain = experiment: in vitro antiplasmodial activity, parasite lactate dehydrogenase (pLDH) assay; assay type: cell-based, Plasmodium falciparum; conditions: for IC50: Plasmodium falciparum, read-out: IC50 ± SD P. falciparum K1; for antiplasmodial activity classification of pure compounds: P. falciparum K1, class by IC50; for Selectivity index (SI): CC50 Vero cells / IC50 P. falciparum K1
PfLDH = conditions: cited from earlier work
Vero cells = experiment: in vitro cytotoxicity, MTT assay; assay type: cell-based; conditions: Vero cells, toxic when CC50 < 100 µM
Description: (§1) The purpose of this study was to determine the cytotoxicity of crude extracts and pure compounds isolated from M. ferrea roots on Vero cells. The MTT assay was performed according to an established protocol. Briefly, Vero cells were cultured in Dulbecco’s Modified Eagle Medium (Gibco, USA) supplemented with 10% fetal bovine serum (FBS) (Sigma-Aldrich, New Delhi, India). Vero cell suspensions were seeded onto 96-well culture plates at a density of 1 × 10^4 cells per well. The seeded culture plates were incubated at 37 °C in a 5% CO2 atmosphere for 24 h to facilitate cell attachment. Subsequently, the cultured cells were exposed to the test extracts and pure compounds in triplicate for each concentration. Doxorubicin (Sigma-Aldrich, India) was used as a positive control, whereas DMSO served as a negative control. All extracts and pure compounds were dissolved in DMSO and added to the medium at a final concentration of 0.5% DMSO. Plates containing the test samples were incubated at 37 °C in a 5% CO2 atmosphere for 48 h. Following incubation, the cell culture supernatant was discarded, and 50 µL of MTT solution (5 mg/mL) (Thermo Fisher Scientific, Oregon, USA) was added to each well. The test plates were then incubated at 37 °C in a 5% CO2 atmosphere for 2 h. Subsequently, the supernatant was discarded, and 100 µL/well of DMSO was added to induce cell lysis and dissolve the formazan crystals. To estimate the reactions, absorbance was measured at 560 nm in a microplate reader, and the background absorbance at 670 nm was subtracted.

[2] = in vitro cytotoxicity, MTT assay; assay type: cell-based; conditions: African green monkey, pure compounds and doxorubicin, 48 h, mean ± SD of three determinations; for CC50 at 48 h: Vero cells
Description: as §1

P. falciparum 3D7 = test system: P. falciparum 3D7; set-up: method as in PMID 37029625; conditions: chloroquine-sensitive P. falciparum 3D7; read-out: IC50 antiplasmodial activity; cited from earlier work
[3] = K1, pure compounds and reference drugs, 72 h, mean ± SD of three determinations
[4] = ratio of IC50 against P. falciparum K1

| IC50 (P. falciparum K1 strain; [3]) [µM] | SMILES | cytotoxicity classification of pure compounds (Vero cells) | CC50 at 48 h [2] [µM] | antiplasmodial activity classification of pure compounds (P. falciparum K1 strain) | also measured |
| --- | --- | --- | --- | --- | --- |
| – | O=c1c2cccc(O)c2oc2cc(O)cc(O)c12 [1,3,5-trihydroxyxanthone] | – | – | – | IC50 (P. falciparum D6; P. falciparum D6, read-out: IC50 antiplasmodial activity): > 60000 nM; IC50 antiplasmodial activity [1]: 24.7 µg/mL (≈ 101 µM) |
| – | O=c1c2ccc(O)c(O)c2oc2c(O)c(O)c(O)cc12 [2,3,4,5,6-pentahydroxyxanthone] | – | – | – | IC50 (heme polymerization; read-out: IC50 in vitro heme polymerization): 1200 nM; IC50 (P. falciparum D6; chloroquine-sensitive P. falciparum D6, read-out: IC50 in vitro antiplasmodial activity): 400 nM |
| – | COc1cc2c(=O)c3ccc(OC)c(OC)c3oc2c(OC)c1OC [2,3,4,5,6-pentamethoxyxanthone] | – | – | – | heme polymerization inhibition (heme polymerization): no in vitro antiplasmodial activity or heme polymerization; in vitro antiplasmodial activity (P. falciparum D6; same study as pentahydroxyxanthone): no in vitro antiplasmodial activity |
| 0.003 | C[C@H]1[C@H](OC(=O)CCC(=O)O)O[C@@H]2O[C@@]3(C)CC[C@H]4[C@H](C)CC[C@@H]1[C@@]24OO3 [Artesunate, artesunate, reference compound] | – | – | – | – |
| – | CCN(CC)CCCC(C)Nc1ccnc2cc(Cl)ccc12 (centres unmarked) [Chloroquine, chloroquine, reference compound] | – | – | – | PfLDH inhibition (PfLDH): weak inhibitor; IC50 (P. falciparum K1 strain; K1, 72 h): 0.32 µM |
| 346 ± 3.51 | COc1ccc2oc3cccc(O)c3c(=O)c2c1 [Compound 1, 1-hydroxy-7-methoxyxanthone] | non-toxic | 195.8 ± 1.68 | inactive | – |
| 164 ± 1.71 | COc1cccc2c(=O)c3c(O)cccc3oc12 [Compound 2, 1-hydroxy-5-methoxyxanthone] | toxic (pure compounds are considered toxic to cells when the CC50 value is less than 100 µM) | 62 ± 1.18 | low (low activity (IC50 100−200 µM)) | – |
| 107 ± 4.41 | O=c1c2cccc(O)c2oc2cccc(O)c12 [Compound 4, 1,5-dihydroxyxanthone] | non-toxic | 416.7 ± 1.98 | low (low activity (IC50 100−200 µM)) | Selectivity index (SI) (P. falciparum K1 strain): 3.89 |
| 198 ± 2.43 | COc1cc(O)c2c(=O)c3cccc(O)c3oc2c1 [Compound 6, 1,5-dihydroxy-3-methoxyxanthone] | non-toxic | 210.2 ± 1.74 | low (low activity (IC50 100−200 µM)) | – |
| 46.3 ± 1.65 | COc1c(O)ccc2oc3c(O)cccc3c(=O)c12 [Compound 7, 2,5-dihydroxy-1-methoxyxanthone] | non-toxic | 587.9 ± 2.18 | moderate (moderate activity (IC50 20−100 µM)) | Selectivity index (SI) (P. falciparum K1 strain): 12.70 |
| – | COc1cccc2c1C(=O)c1c(O)c3c(c(O)c1C2=O)C[C@@](O)(C(=O)CO)C[C@@H]3O[C@H]1C[C@H](N)[C@H](O)[C@H](C)O1 [Doxorubicin, reference compound] | – | 3.35 ± 0.28 | – | – |
| – | C=CC(C)(C)c1c2c(c(O)c3c(=O)c4cccc(O)c4oc13)C=CC(C)(C)O2 [caloxanthone C] | – | – | – | IC50 antiplasmodial activity [1]: 1.3 µg/mL (≈ 3.44 µM) |
| – | CC1(C)C=Cc2c(cc(O)c3c(=O)c4ccc(O)c(O)c4oc23)O1 [isojacareubin] | – | – | – | IC50 (P. falciparum 3D7): 11.5 µM |
| – | C=CC(C)(C)c1c2c(c(O)c3c(=O)c4ccc(O)c(O)c4oc13)C=CC(C)(C)O2 [macluraxanthone] | – | – | – | IC50 (P. falciparum 3D7): 4.28 µM |

| SMILES | IC50 (P. falciparum K1 strain; [3]) [µM] | cytotoxicity classification of pure compounds (Vero cells) | CC50 at 48 h [2] [µM] | antiplasmodial activity classification of pure compounds (P. falciparum K1 strain) | also measured |
| --- | --- | --- | --- | --- | --- |
| O=c1c2ccc(O)cc2oc2cccc(O)c12 [Compound 3, 1,6-dihydroxyxanthone] | 226.1 ± 1.32 | non-toxic | – | inactive | CC50 ([2]; read-out: CC50 ± SD Vero cells): 182.8 ± 1.62 µM |
| CC1(C)C=Cc2cc3c(=O)c4c(O)cccc4oc3c(O)c2O1 [Compound 5, rheediachromenoxanthone] | 19.9 ± 0.72 | no toxicity; also recorded: non-toxic | 112 ± 1.54 | good (good activity (IC50 1−20 µM)) | cytotoxicity classification of pure compounds (Vero cells; listed as Rheediachromenoxanthone): non-toxicity; fold less potent than artesunate (P. falciparum K1 strain; [4]): ~6,643.3 fold; fold less potent than chloroquine (P. falciparum K1 strain; [4]): approximately 62.3 fold; times more potent than 2,5-dihydroxy-1-methoxyxanthone (7) (P. falciparum K1 strain; [4]): approximately 2.3 times |
